Data published in PubChem BioAssay AID2060617 (Molecular Pharmacology Branch, DTP, NCI, 2025).

System: 485368-065-R4-J2-PDC spheroids with HUVEC/MSC, viability
Test: Anticancer human tumor 485368-065-R4-J2-PDC patient-derived pancreatic carcinoma cell line growth inhibition [CLK]
Conditions: for viability, T/C: stronger effect = lower value
Method in brief: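 Multi-cell-type spheroids combined patient-derived tumor cells with HUVEC endothelial cells and human mesenchymal stem cells. Paired agents were dosed in half-log steps down from about clinical Cmax, or from 10 microM where Cmax was unknown.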
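Note: spheroids exposed to compounds for seven days.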
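Throughout, for viability, T/C: 100% = DMSO vehicle control wells.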

O=c1[nH]cc(F)c(=O)[nH]1 + CNC(=O)c1ccc(Nc2nc(OC3CCCC3)c3c(-c4ccc5nc(C)oc5c4)c[nH]c3n2)c(OC)c1
IC50 (curve of first compound, second compound 0.0316 µM): > 10 µM | IC50 (curve of first compound, second compound 0.1 µM): > 10 µM | IC50 (curve of first compound, second compound 0.316 µM): > 10 µM | IC50 (curve of first compound, second compound 1 µM): > 10 µM | IC50 (curve of first compound, second compound 3.16 µM): > 10 µM | IC50 (curve of first compound, second compound 10 µM): > 10 µM | viability, T/C (second compound 0.0316 µM, first compound 0.0316 µM): 82% | viability, T/C (second compound 0.0316 µM, first compound 0.1 µM): 98.8% | viability, T/C (second compound 0.0316 µM, first compound 0.316 µM): 80.4% | viability, T/C (second compound 0.0316 µM, first compound 1 µM): 97.6% | viability, T/C (second compound 0.0316 µM, first compound 3.16 µM): 95.1% | viability, T/C (second compound 0.0316 µM, first compound 10 µM): 81% | viability, T/C (second compound 0.1 µM, first compound 0.0316 µM): 95.5% | viability, T/C (second compound 0.1 µM, first compound 0.1 µM): 99.2% | viability, T/C (second compound 0.1 µM, first compound 0.316 µM): 97% | viability, T/C (second compound 0.1 µM, first compound 1 µM): 103% | viability, T/C (second compound 0.1 µM, first compound 3.16 µM): 93.6% | viability, T/C (second compound 0.1 µM, first compound 10 µM): 82.3% | viability, T/C (second compound 0.316 µM, first compound 0.0316 µM): 81.4% | viability, T/C (second compound 0.316 µM, first compound 0.1 µM): 80.7% | viability, T/C (second compound 0.316 µM, first compound 0.316 µM): 81.3% | viability, T/C (second compound 0.316 µM, first compound 1 µM): 82% | viability, T/C (second compound 0.316 µM, first compound 3.16 µM): 87.3% | viability, T/C (second compound 0.316 µM, first compound 10 µM): 74.2% | viability, T/C (second compound 1 µM, first compound 0.0316 µM): 79.2% | viability, T/C (second compound 1 µM, first compound 0.1 µM): 83.7% | viability, T/C (second compound 1 µM, first compound 0.316 µM): 75% | viability, T/C (second compound 1 µM, first compound 1 µM): 75.9% | viability, T/C (second compound 1 µM, first compound 3.16 µM): 71% | viability, T/C (second compound 1 µM, first compound 10 µM): 62.8% | viability, T/C (second compound 3.16 µM, first compound 0.0316 µM): 69.4% | viability, T/C (second compound 3.16 µM, first compound 0.1 µM): 70.4% | viability, T/C (second compound 3.16 µM, first compound 0.316 µM): 69.5% | viability, T/C (second compound 3.16 µM, first compound 1 µM): 73.3% | viability, T/C (second compound 3.16 µM, first compound 3.16 µM): 68.1% | viability, T/C (second compound 3.16 µM, first compound 10 µM): 64.1% | viability, T/C (second compound 10 µM, first compound 0.0316 µM): 63.3% | viability, T/C (second compound 10 µM, first compound 0.1 µM): 69.6% | viability, T/C (second compound 10 µM, first compound 0.316 µM): 72.1% | viability, T/C (second compound 10 µM, first compound 1 µM): 64.1% | viability, T/C (second compound 10 µM, first compound 3.16 µM): 67% | viability, T/C (second compound 10 µM, first compound 10 µM): 51.8%

CNC(=O)c1ccc(Nc2nc(OC3CCCC3)c3c(-c4ccc5nc(C)oc5c4)c[nH]c3n2)c(OC)c1
viability, T/C (compound 0.0316 µM): 91.6% [middle of 12 runs] | viability, T/C (compound 0.1 µM): 96.7% [middle of 12 runs] | viability, T/C (compound 0.316 µM): 82.6% [middle of 12 runs] | viability, T/C (compound 1 µM): 70.9% [middle of 12 runs] | viability, T/C (compound 3.16 µM): 71.5% [middle of 12 runs] | viability, T/C (compound 10 µM): 76.5% [middle of 12 runs] | IC50 (compound alone, run of 08/15/2023): > 10 µM
